Consider 37 molecules from patent US4798897A, “Isoquinoline derivatives” (Asahi Kasei Kogyo Kabushiki Kaisha, priority 1987, dated 1989).

The test system of one assay is mesenteric artery. The experiment in a line: Relaxation of mesenteric artery (KCl-contracted). The conditions noted are these: rabbit mesenteric artery contracted with 15 to 20 mM KCl, read-out: ED50 (concentration attaining 50% of complete relaxation). Here is the method: 1. Relaxation of Mesenteric Artery
A rabbit of Japanese local variety weighing about 3 kg was bled to death. Then, the abdomen of the rabbit was dissected to locate a mesenteric artery. […] Thus, shrinking and relaxation of the artery could be measured as a load on the transducer. To the organ bath, KCl was added so that the KCl concentration became 15 to 20 mM, causing the artery to shrink. Then, the compounds of the present invention were added to the organ bath to observe relaxation of the artery.
The effect of the compounds of the present invention on relaxation of mesenteric artery was examined according to the method as mentioned hereinbefore.

In the next assay the test system is bronchial tubes. The experiment in a line: Inhibition of histamine contraction of bronchial tubes (relaxation of bronchial tubes). The conditions noted are these: guinea pig bronchial tube, 10 μM histamine, Table 16, read-out: ED50 (50% decrease of histamine contraction of bronchial tubes). Here is the method: 3. Inhibition of Histamine Contraction of Bronchial Tubes (Relaxation of Bronchial Tubes)
That is, a bronchial tube sample taken from a guinea pig was suspended in the 20-ml bath filled with Krebs-Henseleit nutrient solution and maintained at a temperature of 37° C. To the bath was added histamine so that the histamine concentration became 10 μM, causing the bronchial tube sample to contract. After the contraction became stable, the compounds of the present invention were added cumulatively to the bath to observe relaxation of the bronchial tube sample.
The effect of the compounds of the present invention on relaxation of bronchial tubes was examined according to the method as mentioned hereinbefore.

Where two headings read alike, the source gives them in different places.

For the molecule `CCNC1CCCN(S(=O)(=O)c2cccc3cnccc23)C1` (stereo not drawn) [Compound (65), 1-(5-isoquinolinesulfonyl)-3-ethylaminopiperidine], the EC50 in the assay with mesenteric artery (Oryctolagus cuniculus) was found to be 6 µM; in the assay on bronchial tubes (Cavia porcellus) it was 5 µM. Turning to `CCCCCCNC1CCN(S(=O)(=O)c2cccc3cnccc23)CC1` [Compound (57), 1-(5-isoquinolinesulfonyl)-4-hexylaminopiperidine], the EC50 was determined as 15 µM in the assay with mesenteric artery (Oryctolagus cuniculus) and 20 µM in the assay on bronchial tubes (Cavia porcellus). The corresponding values for `CCCCCCC(N)CN(CCCCCC)S(=O)(=O)c1cccc2cnccc12` (stereo not drawn) [Compound (13), N-(2-aminooctyl)-N-hexyl-5-isoquinolinesulfonamide] are 5 µM and 19 µM. On the same counts, the results for `CCCCCCN(CCC(C)CN)S(=O)(=O)c1cccc2cnccc12` (stereo not drawn) [Compound (23), N-(4-amino-3-methylbutyl)-N-hexyl-5-isoquinolinesulfonamide] are 18 µM and 18 µM. Turning to `CCCCCCN(C(C)CCCN)S(=O)(=O)c1cccc2cnccc12` (stereo not drawn) [Compound (21), N-(4-amino-1-methylbutyl)-N-hexyl-5-isoquinolinesulfonamide], the values for the EC50 in the assay on mesenteric artery (Oryctolagus cuniculus) and in the assay on bronchial tubes (Cavia porcellus) were 19 µM and 17 µM, respectively. For “1-(1-chloro-5-isoquinolinesulfonyl)-3-(N-hexyl-N-methylamino)piperidine [Compound (100)]”, the EC50 with mesenteric artery and with bronchial tubes was 22 µM throughout.

With `CCN(CCCCC(C)CN)S(=O)(=O)c1cccc2cnccc12` (stereo not drawn) [Compound (22), N-(5-aminomethylhexyl)-N-ethyl-5-isoquinolinesulfonamide], the EC50 in the assay with mesenteric artery (Oryctolagus cuniculus) was 21 µM; with bronchial tubes (Cavia porcellus) it was 20 µM. The corresponding values for `CCCCCCN(C(CN)CCCC)S(=O)(=O)c1cccc2cnccc12` (stereo not drawn) [Compound (19), N-(1-aminomethylpentyl)-N-hexyl-5-isoquinolinesulfonamide] are 16 µM and 13 µM. Regarding `O=S(=O)(c1cccc2cnccc12)N1CCCC(N2CCCCC2)C1` (stereo not drawn) [Compound (72), 1-(5-isoquinolinesulfonyl)-3-piperidinopiperidine], the EC50 in the assay with mesenteric artery (Oryctolagus cuniculus) was 24 µM; in the assay with bronchial tubes (Cavia porcellus), 21 µM. For the molecule `CCCNC1CCN(S(=O)(=O)c2cccc3c(O)nccc23)CC1` [Compound (81), 1-(1-hydroxy-5-isoquinolinesulfonyl)-4-propylaminopiperidine], the EC50 in the assay with mesenteric artery (Oryctolagus cuniculus) is 12 µM; in the assay with bronchial tubes (Cavia porcellus), 14 µM. Turning to `O=S(=O)(c1cccc2cnccc12)N1CCCC(Nc2ccccc2)C1` (stereo not drawn) [Compound (68), 1-(5-isoquinolinesulfonyl)-3-phenylaminopiperidine], the EC50 in the assay with mesenteric artery (Oryctolagus cuniculus) was 16 µM. As to `CN(CCN)S(=O)(=O)c1cccc2cnccc12` [Compound (1), N-(2-aminoethyl)-N-methyl-5-isoquinolinesulfonamide], the EC50 worked out at 5 µM in the assay with mesenteric artery (Oryctolagus cuniculus) and 8 µM in the assay on bronchial tubes (Cavia porcellus). On to `CN(C)C1CCCN(S(=O)(=O)c2cccc3c(O)nccc23)C1` (stereo not drawn) [Compound (90), 1-(1-hydroxy-5-isoquinolinesulfonyl)-3-dimethylaminopiperidine], for which the figures for the EC50 in the assay with mesenteric artery (Oryctolagus cuniculus) and with bronchial tubes (Cavia porcellus) were 23 µM and 17 µM, respectively. On the same counts, the results for `CCNC1CCCN(S(=O)(=O)c2cccc3c(Cl)nccc23)C1` (stereo not drawn) [Compound (97), 1-(1-chloro-5-isoquinolinesulfonyl)-3-ethylaminopiperidine] are 15 µM and 10 µM. The corresponding values for `O=S(=O)(c1cccc2c(O)nccc12)N1CCCC(NCc2ccccc2)C1` (stereo not drawn) [Compound (86), 1-(1-hydroxy-5-isoquinolinesulfonyl)-3-benzylaminopiperidine] are 17 µM and 11 µM.

For the molecule `CCCCCCNCCN(CCCCCC)S(=O)(=O)c1cccc2cnccc12` [Compound (29), N-(2-hexylaminoethyl)-N-hexyl-5-isoquinolinesulfonamide], the EC50 with mesenteric artery (Oryctolagus cuniculus) was determined as 9 µM; in the assay on bronchial tubes (Cavia porcellus), 10 µM. Take `NC1CCCN(S(=O)(=O)c2cccc3c(Cl)nccc23)C1` (stereo not drawn) [Compound (96), 1-(1-chloro-5-isoquinolinesulfonyl)-3-aminopiperidine]: the EC50 in the assay with mesenteric artery (Oryctolagus cuniculus) came to 15 µM; in the assay on bronchial tubes (Cavia porcellus), 12 µM. The corresponding values for `CCCCCCNCCCN(CCCCCC)S(=O)(=O)c1cccc2cnccc12` [Compound (33), N-(3-hexylaminopropyl)-N-hexyl-5-isoquinolinesulfonamide] are 13 µM and 19 µM. The corresponding values for `CCN(CCCCCN1CCCCC1)S(=O)(=O)c1cccc2cnccc12` [Compound (50), N-ethyl-N-(5-piperidinopentyl)-5-isoquinolinesulfonamide] are 26 µM and 26 µM. On the same counts, the results for `CCCCCCN(CCCCN)S(=O)(=O)c1cccc2cnccc12` [Compound (8), N-(4-aminobutyl)-N-hexyl-5-isoquinolinesulfonamide] are 5 µM and 11 µM. Take `CCCCCCN(CCNCc1ccccc1)S(=O)(=O)c1cccc2cnccc12` [Compound (32), N-(2-benzylamioethyl)-N-hexyl-5-isoquinolinesulfonamide]: the EC50 in the assay on mesenteric artery (Oryctolagus cuniculus) turned out to be 8 µM; with bronchial tubes (Cavia porcellus) it was 17 µM. For `CCN(C(C)CN)S(=O)(=O)c1cccc2cnccc12` (stereo not drawn) [Compound (17), N-(2-amino-1-methylethyl)-N-ethyl-5-isoquinolinesulfonamide], the EC50 is 14 µM with mesenteric artery (Oryctolagus cuniculus) and 10 µM with bronchial tubes (Cavia porcellus). On to `CC(C)NC1CCCN(S(=O)(=O)c2cccc3cnccc23)C1` (stereo not drawn) [Compound (67), 1-(5-isoquinolinesulfonyl)-3-isopropylaminopiperidine], for which the EC50 in the assay on mesenteric artery (Oryctolagus cuniculus) came out at 14 µM; in the assay on bronchial tubes (Cavia porcellus) it was 10 µM.

As for `CCCNC1CCN(S(=O)(=O)c2cccc3cnccc23)CC1` [Compound (54), 1-(5-isoquinolinesulfonyl)-4-propylaminopiperidine], the EC50 in the assay on mesenteric artery (Oryctolagus cuniculus) came out at 13 µM; in the assay on bronchial tubes (Cavia porcellus), 14 µM. Take `CCCCCCN(CC(C)N1CCCCC1)S(=O)(=O)c1cccc2cnccc12` (stereo not drawn) [Compound (48), N-hexyl-N-(2-piperidinopropyl)-5-isoquinolinesulfonamide]: the EC50 with mesenteric artery (Oryctolagus cuniculus) is 24 µM; in the assay with bronchial tubes (Cavia porcellus), 20 µM.

Take `CCCCCCN(CC(N)CC)S(=O)(=O)c1cccc2cnccc12` (stereo not drawn) [Compound (12), N-(2-aminobutyl)-N-hexyl-5-isoquinolinesulfonamide]: the EC50 in the assay on mesenteric artery (Oryctolagus cuniculus) was determined as 4 µM; in the assay on bronchial tubes (Cavia porcellus), 12 µM. Consider `CCN(CC)CCN(C)S(=O)(=O)c1cccc2cnccc12` [Compound (42), N-(2-diethylaminoethyl)-N-methyl-5-isoquinolinesulfonamide], for which the EC50 came to 15 µM in the assay on mesenteric artery (Oryctolagus cuniculus) and 25 µM in the assay with bronchial tubes (Cavia porcellus). For `CCCCCCN(CCN(C)C)S(=O)(=O)c1cccc2cnccc12` [Compound (43), N-(2-dimethylaminoethyl)-N-hexyl-5-isoquinolinesulfonamide], the EC50 with mesenteric artery (Oryctolagus cuniculus) was determined as 20 µM; in the assay on bronchial tubes (Cavia porcellus), 27 µM. On the same counts, the results for `CC(C)NC1CCN(S(=O)(=O)c2cccc3cnccc23)CC1` [Compound (55), 1-(5-isoquinolinesulfonyl)-4-isopropylaminopiperidine] are 17 µM and 12 µM. Consider `NC1CCN(S(=O)(=O)c2cccc3cnccc23)C1` (stereo not drawn) [Compound (78), 1-(5-isoquinolinesulfonyl)-3-aminopyrrolidine], for which the figures for the EC50 with mesenteric artery (Oryctolagus cuniculus) and in the assay with bronchial tubes (Cavia porcellus) were 12 µM and 30 µM, respectively. On the same counts, the results for `NCCN(Cc1ccccc1)S(=O)(=O)c1cccc2cnccc12` [Compound (6), N-(2-aminoethyl)-N-benzyl-5-isoquinolinesulfonamide] are 4 µM and 5 µM. The corresponding values for `CNC1CCN(S(=O)(=O)c2cccc3c(Cl)nccc23)CC1` [Compound (94), 1-(1-chloro-5-isoquinolinesulfonyl)-4-methylaminopiperidine] are 18 µM and 22 µM. Consider `CCCN(C(C)CCCNCc1ccccc1)S(=O)(=O)c1cccc2cnccc12` (stereo not drawn) [Compound (40), N-(4-benzylamino-1-methylbutyl)-N-propyl-5-isoquinolinesulfonamide], for which the results for the EC50 with mesenteric artery (Oryctolagus cuniculus) and in the assay with bronchial tubes (Cavia porcellus) were 14 µM and 22 µM, respectively. In the case of `O=S(=O)(c1cccc2c(O)nccc12)N1CCCC(NCCc2ccccc2)C1` (stereo not drawn) [Compound (89), 1-(1-hydroxy-5-isoquinolinesulfonyl)-3-phenethylaminopiperidine], the figures for the EC50 with mesenteric artery (Oryctolagus cuniculus) and with bronchial tubes (Cavia porcellus) were 12 µM and 10 µM, respectively. As to `O=S(=O)(c1cccc2c(O)nccc12)N1CCCC(Nc2ccccc2)C1` (stereo not drawn) [Compound (87), 1-(1-hydroxy-5-isoquinolinesulfonyl)-3-phenylaminopiperidine], the EC50 with mesenteric artery (Oryctolagus cuniculus) worked out at 20 µM; in the assay on bronchial tubes (Cavia porcellus) it was 15 µM.

As to `CNC1CCCN(S(=O)(=O)c2cccc3cnccc23)C1` (stereo not drawn) [Compound (64), 1-(5-isoquinolinesulfonyl)-3-methylaminopiperidine], the EC50 in the assay on mesenteric artery (Oryctolagus cuniculus) and in the assay on bronchial tubes (Cavia porcellus) was 6 µM in each case.

Turning to `CCCCCCN(C(C)CN(CC)CC)S(=O)(=O)c1cccc2cnccc12` (stereo not drawn) [Compound (49), N-(2-diethylamino-1-methylethyl)-N-hexyl-5-isoquinolinesulfonamide], the EC50 in the assay with bronchial tubes (Cavia porcellus) was found to be 15 µM.
